Toxic doses and inconclusive results are not listed. No stated cut-off is given here; in the data, active means T/C of 150% or more; inactive means T/C below 125%.
Test system: L1210 leukemia ip in BDF1 mice, survival T/C
Assay: NCI In Vivo Anticancer Drug Screen. Data for tumor model L1210 Leukemia (intraperitoneal) in B6D2F1 (BDF1) mice
Settings: endpoint: mean survival time, higher = longer survival
Procedure, shortened: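 Value reflects the ratio of survival in compound-treated mice to survival in vehicle-treated controls, with both groups carrying the same transplanted tumor.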

[1] = dose: 100.0 mg/kg/injection, schedule: Q01DX009 (ip), vehicle: Klucel (hydroxypropylcellulose) (HPC)
[2] = dose: 200.0 mg/kg/injection, schedule: Q01DX009 (ip), vehicle: Klucel (hydroxypropylcellulose) (HPC)
[3] = dose: 100.0 mg/kg/injection, schedule: Q04DX003 (ip), vehicle: Klucel (hydroxypropylcellulose) (HPC)
[4] = dose: 200.0 mg/kg/injection, schedule: Q04DX003 (ip), vehicle: Klucel (hydroxypropylcellulose) (HPC)
[5] = dose: 400.0 mg/kg/injection, schedule: Q01DX009 (ip), vehicle: Klucel (hydroxypropylcellulose) (HPC)
[6] = dose: 400.0 mg/kg/injection, schedule: Q04DX003 (ip), vehicle: Klucel (hydroxypropylcellulose) (HPC)
[7] = dose: 50.0 mg/kg/injection, schedule: Q01DX001 (ip), vehicle: saline
[8] = dose: 100.0 mg/kg/injection, schedule: Q01DX001 (ip), vehicle: saline
[9] = dose: 200.0 mg/kg/injection, schedule: Q01DX001 (ip), vehicle: saline
[10] = dose: 100.0 mg/kg/injection, schedule: Q04DX003 (ip), vehicle: saline
[11] = dose: 200.0 mg/kg/injection, schedule: Q04DX003 (ip), vehicle: saline
[12] = dose: 400.0 mg/kg/injection, schedule: Q01DX001 (ip), vehicle: saline

Measured: T/C

SCc1ccc(Cl)cc1.[Pb]
inactive: dose: 100.0 mg/kg/injection, schedule: Q04DX002 (ip), vehicle: gum acacia 88 % of control | dose: 200.0 mg/kg/injection, schedule: Q04DX002 (ip), vehicle: gum acacia 98 % of control | dose: 400.0 mg/kg/injection, schedule: Q04DX002 (ip), vehicle: gum acacia 109 % of control

CCOC(=O)N/N=C(\C)c1ccc(OC)cc1
inactive: [1] 98 % of control | [2] 112 % of control

COc1cc2c(cc1OC)C1=CC(=O)N3CCCC34OS(=O)OC14CC2 (stereo not given)
inactive: [1] 97 % of control | [3] 98 % of control | [2] 100 % of control | [4] 96 % of control | [5] 96 % of control | [6] 96 % of control

C/C(=N/NC(N)=S)c1ccc(F)cc1
inactive: dose: 9.38 mg/kg/injection, schedule: Q01DX009 (ip), vehicle: Klucel (hydroxypropylcellulose) (HPC) 95 % of control | dose: 18.75 mg/kg/injection, schedule: Q01DX009 (ip), vehicle: Klucel (hydroxypropylcellulose) (HPC) 92 % of control

FC(F)(F)C(F)(F)C1=NS1(F)C(F)(C(F)(F)F)C(F)(F)F (stereo not given)
inactive: dose: 100.0 mg/kg/injection, schedule: Q01DX001 (ip), vehicle: acetone 100 % of control | dose: 200.0 mg/kg/injection, schedule: Q01DX001 (ip), vehicle: acetone 97 % of control | dose: 400.0 mg/kg/injection, schedule: Q01DX001 (ip), vehicle: acetone 97 % of control

O=C(NCCF)NC1CCC(C(=O)O)CC1 (stereo not given)
inactive: [7] 111 % of control | [8] 107 % of control | [9] 96 % of control

CC1(O)CCC2CC1C2(C)CO (stereo not given)
inactive: dose: 50.0 mg/kg/injection, schedule: Q04DX003 (ip), vehicle: Klucel (hydroxypropylcellulose) (HPC) 108 % of control | [3] 101 % of control | [4] 106 % of control | [6] 111 % of control

[Cl][Pt+2][Cl].[NH-]CC1CCCC[N-]1 (stereo not given)
active: [10] 163 % of control
inactive: dose: 3.13 mg/kg/injection, schedule: Q04DX003 (ip), vehicle: saline 111 % of control | dose: 6.25 mg/kg/injection, schedule: Q04DX003 (ip), vehicle: saline 108 % of control | dose: 12.5 mg/kg/injection, schedule: Q04DX003 (ip), vehicle: saline 122 % of control | [11] 120 % of control

CC(C)(CC(=O)O)NC(=O)CN
inactive: dose: 100.0 mg/kg/injection, schedule: Q04DX002 (ip), vehicle: saline 94 % of control | dose: 200.0 mg/kg/injection, schedule: Q04DX002 (ip), vehicle: saline 91 % of control | dose: 400.0 mg/kg/injection, schedule: Q04DX002 (ip), vehicle: saline 97 % of control

O=[N+]([O-])c1cccc(OCCCCOc2ccccc2)c1
inactive: [1] 98 % of control | [10] 100 % of control | [2] 101 % of control | [11] 101 % of control | [5] 102 % of control | dose: 400.0 mg/kg/injection, schedule: Q04DX003 (ip), vehicle: saline 95 % of control

O=C(/C=C/c1ccccc1)N(Cc1ccccc1)c1ccccc1
inactive: [1] 97 % of control | [2] 101 % of control | [5] 103 % of control

Cc1cc(C)c2[nH]c(=O)c(C)c(C)c2c1Br
inactive: dose: 100.0 mg/kg/injection, schedule: Q01DX001 (ip), vehicle: other 102 % of control | dose: 200.0 mg/kg/injection, schedule: Q01DX001 (ip), vehicle: other 94 % of control | dose: 400.0 mg/kg/injection, schedule: Q01DX001 (ip), vehicle: other 100 % of control

O=C(Nc1nc2ccccc2[nH]1)C(F)(F)F
inactive: [8] 97 % of control | [9] 100 % of control | [12] 97 % of control

NCCN(CCN)CCN
inactive: [7] 108 % of control | [8] 96 % of control | [9] 96 % of control | [12] 124 % of control
